Source: patent US10072014B2 (Janssen Pharmaceutica NV, priority 2014, dated 2018)

Legend:
Wiga Wistar rats = assay: Reversal of LY-404039-induced decrease of palpebral opening in apomorphine-challenged rats; format: in vivo; conditions: Rattus norvegicus, PO, criterion: cumulative palpebral opening score >26, read-out: ED50 APO LY-404039
Experimental: B) In Vivo Pharmacology 1) Reversal of LY-404039-induced Decrease of Palpebral Opening in Apomorphine-challenged Rats.
Male Wiga Wistar rats (Crl:WI; Charles River Germany; 220±40 g) were housed under standard laboratory conditions (21±2° C.; 50-65% relative humidity; light-dark cycle set at 12 h; lights on at 6.00 h) and fasted overnight prior to the start of the experiments (tap water remained available ad libitum). During the test period, they were housed in individual cages. Palpebral opening was scored every 5 min over the first hour after injection of apomorphine (1.0 mg/kg, i.v.) in animals either pretreated or not pretreated with LY-404039 (2.5 mg/kg, s.c.) at 1 h prior to the apomorphine injection. The animals were also pretreated with test compound or solvent at a predefined interval before apomorphine challenge. The score system was: (5) exophthalmos, (4) wide open, (3) open for three-quarters, (2) half open, (1) open for one-quarter, (0) closed. The scores for palpebral opening were cumulated over the 60-min observation period. A cumulative palpebral opening score>26 was selected for drug-induced reversal of the LY-404039-induced decrease of palpebral opening (occurrence in 3.2% of control animals pretreated with LY-404039 (n=154) versus in 99.5% of control rats not pretreated with LY-404039 (n=6335)). […]

Induction of mydriasis = conditions: Wiga, rat, in vivo, PO, rats
Experimental: 3) Induction of Mydriasis
The pupil diameter of Wiga rats was measured with a microscopic micrometer (1 unit= 1/24 mm). Criteria for drug-induced effects: pupil diameter>25 units for mydriasis (in controls: 1.9%) 1 h post-administration of the test compound (test 1) or 1, 2 or 3 h post-administration of the test compound (test 2, wherein the maximum pupil diameter over the full 3 h period is reported).

- ED50 (Induction of mydriasis; maximum pupil diameter >25 units over 1, 2 or 3 h post-administration, read-out: ED50 MYD Test 2): > 40 mg/kg
- ED50 at 1 h (Induction of mydriasis; pupil diameter >25 units 1 h post-administration, read-out: ED50 MYD Test 1): > 10 mg/kg
SMILES: Cc1ncc(-c2cnn3c2C(=O)N(c2ccc(C(F)(F)F)c(Cl)c2)C[C@@H]3C)[nH]1 [Compound 27]
- ED50 (Wiga Wistar rats): 0.2 mg/kg
